Data taken from patent US12023335B2, “Method for treating pancreatic cancer” (PTC THERAPEUTICS, INC., priority 2018, dated 2024).
“Also recorded” adds a separate entry of the source.

Legend:
[1] = Compound 1 levels in plasma, quadriceps and PDA tissue of KPC mice; format: in vivo; conditions: 24 hours after single oral dose 10 mg/kg (FIG. 5a)
Method: Blood plasma and tissue samples to be used for analysis were immediately frozen on dry ice and stored at −80° C. until analysis. Concentrations of Compound 1 in samples were quantified using high-performance liquid chromatography with tandem mass spectrometry (LC-MS/MS). Compound 1 and its internal standard (deuterated Compound 1) were recovered by protein precipitation extraction from samples.
For the pharmacokinetic study that assessed plasma, quadriceps muscle, and tumor tissue following a single dose of Compound 1 the assay conditions were as follows (FIG. 5a):
Plasma: A standard curve was made to cover concentrations between 0.002 ug/mL and 6.0 ug/mL. the LLOQ for Compound 1 (either version) in plasma was 0.001 μg/mL
Quadriceps muscle: A standard curve was made to cover concentrations between 0.001 μg/g wet tissue and 3.0 μg/g wet tissue. The LLOQ for Compound 1 (either version) was 0.01 μg/g wet tissue.
Tumor tissue: A standard curve was made to cover concentrations between 0.001 μg/g wet tissue and 3.0 μg/g wet tissue. The LLOQ for Compound 1 (either version) was 0.02 μg/g wet tissue.

CYCLIN B1 = assay: Western blot for CYCLIN B1 on tumors from KPC mice; format: in vivo; conditions: 10 mg/kg; biopsy 48 hours before first dose vs necropsy 24 hours after third dose (FIGS. 5b, 5c)
Method: Western blotting was carried out on lysates isolated from treated cells. Cells were lysed using RIPA buffer (50 mM Tris, pH 7.4, 150 mM NaCl, 1% Nonidet P-40, 0.1% SDS, 0.5% deoxycholate) supplemented with cOmplete™ EDTA-free Protease Inhibitor Cocktail (Sigma, 11836170001) and Halt™ Phosphatase Inhibitor Cocktail (ThermoFisher, 78420). Lysates were quantified using the Pierce BCA Protein Assay Kit (ThermoFisher, 23227), diluted in SDS sample buffer, resolved by SDS-PAGE (15-30 μg/sample), and transferred onto PVDF membranes. Membranes were blocked with 5% w/v nonfat dry milk in TBS-T (0.1% Tween20) and primary antibodies were incubated overnight at 4° C., diluted in 5% BSA in TBS-T at the indicated concentrations. HRP-conjugated secondary antibodies were incubated in blocking buffer for 1 hour at room temperature before detection using Super Digital-ECL™ substrate solution (Kindle Biosciences, R1002). (FIG. 5b, FIG. 10a and FIG. 11b)

PDA tumors in KPC mice = assay: KPC intervention/survival study; format: in vivo; conditions: KPC mice (FIGS. 7a, 7b)
Method: Tumor formation in KPC mice was monitored by weekly palpation until the detection of a mass. Upon positive palpation, the mass was monitored by twice weekly ultrasound until the tumor reached an enrollable size of 4-7 mm average diameter. Once enrollable, KPC mice were randomly enrolled into a treatment arm of the intervention study. Mice were treated with vehicle, Compound 1 (17 mg/kg, PO, b.i.w.), gemcitabine alone (100 mg/kg, IP, b.i.w.), or Compound 1+gemcitabine. Mice receiving Compound 1 also received gemcitabine vehicle (saline, IP, b.i.w.) at a volume (μL) of 50× body weight (g). Mice receiving gemcitabine also received Compound 1 vehicle (0.5% hydroxypropylmethylcellulose with 0.1% Tween80 (w/v), PO, b.i.w.) at a volume (μL) of 5.7× body weight (g). All drug and vehicle combinations were administered simultaneously.
Tumor ultrasonography and volume quantification were carried out as described in Sastra S A, Olive K P, Quantification of murine pancreatic tumors by high-resolution ultrasound, Methods Mol Biol 2013; 980:249-66. […]
To prepare samples for immunohistochemistry, tissues were first fixed overnight in 10% phosphate-buffered formalin and then stored in 70% ethanol for long-term storage. […] Next, antigen retrieval was carried out in an experimentally determined, antibody-specific antigen retrieval buffer (usually 10 mM citrate, pH 6.0 or 10 mM Tris, pH 10.0). […]

[2] = test system: J1002VEH and J1002TAM cells; assay: Cell cycle analysis of J1002VEH and J1002TAM cells; format: cell-based, mouse
Method: Cells were seeded into 12-well or 6-well plates such that 16 hours later they would be approximately 30-50% confluent. Cells were then treated for 24 hours with either DMSO (<0.003%), Compound 1 (100 nM or 1 μM), or 100 nM nocodazole (Sigma, M1404). Following treatment, cells were harvested and fixed in ice-cold 70% ethanol for a minimum of one hour. Following fixation, cells were re-suspended in PBS+2% FBS+3 μM DAPI (BioLegend, 422801) or 0.25 μg 7-AAD (BD Pharmingen, 559925), and analyzed on a MACSQuant® Analyzer 10 (Miltenyi Biotec) or BD LSR II™. For cell cycle analysis time course experiments, cells were prepared as described above, except treated for 24, 48, or 72 hours. Data was analyzed using FlowJo software. Percent populations in G2/M were identified using the univariate cell cycle platform offered by FlowJo software. Percent populations >4N were determined by gating above the 4N population of DMSO-treated cells. (FIG. 1b, FIG. 1c, FIG. 2a, FIG. 2b, FIG. 10e, and FIG. 10g)

In the case of `Cc1nc2ccc(F)cc2n1-c1nc(N)c(F)c(Nc2ccc(C(F)(F)F)cc2)n1` [Compound 1, 5-fluoro-2-(6-fluoro-2-methyl-1H-benzo[d]imidazol-1-yl)-N4-[4-(trifluoromethyl)phenyl]pyrimidine-4,6-diamine], the “distribution into PDA tumor tissue” value [1] is reported as “effective biodistribution into tumor tissues; also recorded: distributes into PDA tissues”, the “CYCLIN B1 normalized to VINCULIN in tumors” value (CYCLIN B1) is reported as “consistent reduction in Cyclin B1 relative to Vinculin” and the “tumor volumes by high resolution 3D ultrasound” value (PDA tumors in KPC mice) is reported as “time-dependent decrease in KPC mouse model PDA tumor volume”. The “cell cycle distribution / polyploidy of J1002VEH and J1002TAM cells” value ([2]; 1.0 μM, 24 hours (FIGS. 10d-10g)) was “dose and time-dependent increase in the amount of BMI-1 dependent cells affected by polyploidy” and the “BMI-1 hyperphosphorylation (conclusion from FIG. 10 data as a whole)” value ([2]; data taken as a whole) was “induces BMI-1 hyperphosphorylation indirectly as a result of mitotic arrest”.
